Series [1] concerns Candida albicans. The series can be described thus: Test of antibacterial activity in vitro (bacteria-inhibition zone). The format is cell-based. Conditions: Candida albicans; for zone of inhibition at 1.4 µg/mL: 1.4 μg/ml after conversion, serum added (40% defibered sheep serum); for zone of inhibition at 2.8 µg/mL: 2.8 μg/ml after conversion, no serum.
Series [2] deals with most of the fungal. Conditions: for most of the fungal; cited from earlier work.
Series [3] deals with Candida mycoderma. The experiment in a line: Test of antibacterial activity in vitro (bacteria-inhibition zone). The format is cell-based. The following applies: for zone of inhibition at 1.4 µg/mL: 1.4 μg/ml after conversion, serum added (40% defibered sheep serum); for zone of inhibition at 2.8 µg/mL: 2.8 μg/ml after conversion, no serum.
Series [4] relates to Saccharomyces cerevisiae. Described as above. The format is cell-based. Conditions: Saccharomyces cerevisiae; for zone of inhibition at 1.4 µg/mL: 1.4 μg/ml after conversion, serum added (40% defibered sheep serum); for zone of inhibition at 2.8 µg/mL: 2.8 μg/ml after conversion, no serum.
For series [5] the following is noted: study by Rutgers University; cited from earlier work.
For series [6], the system named is esterase. The following applies: cited from earlier work.
[7] abbreviates: 0 h, read-out: diameter of the bacteria-inhibition zone, Candida albicans 0 h.
Setting [8] is: 6 h, read-out: diameter of the bacteria-inhibition zone, Candida albicans 6 h.
Where [9] appears, read: 24 h, read-out: diameter of the bacteria-inhibition zone, Candida albicans 24 h.
The mark [10] stands for this setting: 48 h, read-out: diameter of the bacteria-inhibition zone, Candida albicans 48 h.
Setting [11] is: 0 h, read-out: diameter of the bacteria-inhibition zone, Candida mycoderma 0 h.
The mark [12] stands for this setting: 6 h, read-out: diameter of the bacteria-inhibition zone, Candida mycoderma 6 h.
Where [13] appears, read: 24 h, read-out: diameter of the bacteria-inhibition zone, Candida mycoderma 24 h.
[14] abbreviates: 48 h, read-out: diameter of the bacteria-inhibition zone, Candida mycoderma 48 h.
[15] abbreviates: 0 h, read-out: diameter of the bacteria-inhibition zone, Saccharomyces cerevisiae 0 h.
The mark [16] stands for this setting: 6 h, read-out: diameter of the bacteria-inhibition zone, Saccharomyces cerevisiae 6 h.
Setting [17] is: 24 h, read-out: diameter of the bacteria-inhibition zone, Saccharomyces cerevisiae 24 h.
Setting [18] is: 48 h, read-out: diameter of the bacteria-inhibition zone, Saccharomyces cerevisiae 48 h.

We go through two molecules from US8217013B2, “Polyene diester antibiotics” (priority 2007, dated 2012).

Like-named read-outs stand apart in the source and are kept apart here.

Usually zone of inhibition stands for the size of the clear area around the sample on an inoculated plate.

With `C[C@@H]1[C@H](O)[C@@H](C)/C=C/C=C/C=C/C=C/C=C/C=C/C=C/[C@H](O[C@@H]2O[C@H](C)[C@@H](O)[C@H](N)[C@@H]2O)C[C@@H]2O[C@](O)(C[C@@H](O)C[C@@H](O)[C@H](O)CC[C@@H](O)C[C@@H](O)CC(=O)O[C@H]1C)C[C@H](O)[C@H]2C(=O)O` [amphotericin B, reference compound], the zone of inhibition at 1.4 µg/mL in series [1] (setting [7]), in series [1] (setting [8]), in series [1] (setting [9]), in series [1] (setting [10]), in series [3] (setting [11]) and in series [3] (setting [12]) was 12 to 14 mm in each case. Further, the zone of inhibition at 1.4 µg/mL lay within 12 to 14 mm in series [3] (setting [13]); 12 to 14 mm in series [3] (setting [14]); 14 to 16 mm in series [4] (setting [15]); 14 to 16 mm in series [4] (setting [16]); 14 to 16 mm in series [4] (setting [17]); 14 to 16 mm in series [4] (setting [18]). The zone of inhibition at 2.8 µg/mL in series [1] (setting [7]), in series [1] (setting [8]), in series [1] (setting [9]), in series [1] (setting [10]), in series [3] (setting [11]) and in series [3] (setting [12]) was 14 to 16 mm in each case. For the same molecule, the zone of inhibition at 2.8 µg/mL lay within 14 to 16 mm in series [3] (setting [13]); 14 to 16 mm in series [3] (setting [14]); 16 to 18 mm in series [4] (setting [15]); 16 to 18 mm in series [4] (setting [16]); 16 to 18 mm in series [4] (setting [17]); 16 to 18 mm in series [4] (setting [18]). Moreover, in series [2], the “minimum inhibitory concentration (MIC)” value was 0.02 to 1 µg/mL.

For `COC(=O)[C@H]1[C@@H]2C[C@@H](O[C@@H]3O[C@H](C)[C@@H](O)[C@H](N)[C@@H]3O)/C=C/C=C/C=C/C=C/C=C/C=C/C=C/[C@H](C)[C@@H](O)[C@@H](C)[C@H](C)OC(=O)C[C@H](O)C[C@H](O)CC[C@@H](O)[C@H](O)C[C@H](O)C[C@](O)(C[C@@H]1O)O2` [amphotericin methyl ester], in series [5], the toxicity entry is “toxicity was lowered”. Also, the “hydrolysis by esterase in vivo” value in series [6] is “cannot be hydrolyzed by esterase in vivo”.
